{"source": "patent US20250263370A1", "about": "(Tay Therapeutics Limited, priority 2022, published 2025)", "key": {"[1]": {"tested_on": "rat anti-collagen IgG1 antibodies", "test": "Rat anti-collagen IgG1 antibodies in serum of CIA rats at day 21", "type": "in vivo, Lewis rat", "settings": "Group 4 (CIA + GSK620)", "experimental": "Blood was additionally collected from groups 1-7 via cardiac puncture following euthanasia on Day 21. […] Serum was divided into two separate tubes and stored at −75±15° C. One tube was used to analyze IgG1, and the other tube was reserved for additional analyses."}, "[2]": {"tested_on": "collagen-induced arthritis", "test": "Histopathologic analysis of H&E-stained hind limbs of CIA rats", "type": "in vivo, Lewis rat"}, "[3]": {"test": "Pharmacokinetics and plasma concentration of Example 101 in Lewis rats after oral administration (CIA study)", "type": "in vivo, Lewis rat", "settings": "Day 21, Group 4 (CIA + GSK620)"}, "[4]": {"tested_on": "IL-17A", "test": "IL-17A levels by ELISA in stimulated human peripheral blood mononuclear cells", "type": "cell-based", "settings": "Homo sapiens, PBMC", "procedure": "(§1) CD2, CD3, and CD28 antibody-coated beads from the T-cell activation/expansion kit (Miltenyi Biotec) were added to the PBMC at a bead-to-cell ratio of 1:2.\n(§2) The mixture of PBMCs and beads were seeded into the wells of the round-bottom 96-well plate at a concentration of 2×10^5 cells/well in a total volume of 200 μL. The cells were cultured for 72 hours at 37° C. and 5% CO2 and then supernatants were collected and IL-17A and IL-22 levels were measured by ELISA. […] The final compound concentration ranged from 30,000 nM to 0.005 nM and the final DMSO concentration per well was 0.3%. PBMCs were seeded at approximately 2×10^5 cells/well in the wells of the 96-well tissue culture plate in a total volume of 190 μL. The plate was incubated for 1 hour at 37° C. and 5% CO2. […] The cells were then cultured for 24 hours at 37° C. and 5% CO2. The supernatant was collected and CXCL10 levels were measured by ELISA."}, "[5]": {"tested_on": "IL-22", "test": "IL-22 levels by ELISA in stimulated human peripheral blood mononuclear cells", "type": "cell-based", "settings": "Homo sapiens, PBMC", "procedure": "as §1, §2"}, "[6]": {"tested_on": "collagen-induced arthritis", "settings": "rat, in vivo, po"}, "[7]": {"settings": "CIA rats, daily P.O. (group 4), hind limb H&E"}, "[8]": {"settings": "hind limbs, CIA induced, 8 animals examined"}}, "note": "“And” between values parts separate entries of the source, which are not always exact repeats. Equal values may be shown once. Read-outs that look alike come from different tables or passages of the source. Marks after values point to notes of the source that are not given here."}
{"smiles": "CNC(=O)c1cc(C(=O)NC2CC2)cn(Cc2ccccc2)c1=O", "note": "[GSK620]", "values": [{"measurement": "Average rat anti-collagen IgG1 levels, Mean", "setting": "[1]; day 21, group mean", "value": "7532.82*"}, {"measurement": "Final Rat Anti-Collagen IgG1 Antibody Con.", "setting": "[1]; day 21, per animal", "value": "9149.39 units/ml and 10971.56 units/ml and 258.62 units/ml and 1400.18 units/ml and 15017.25 units/ml and 2682.44 units/ml and 9308.00 units/ml and 11475.12 units/ml"}, {"measurement": "Rat Anti-Collagen IgG1 Antibody Con.", "setting": "[1]; before multiplying by Fold 2000, day 21, per animal", "value": "4.57 units/ml and 5.49 units/ml and 0.13 units/ml and 0.70 units/ml and 7.51 units/ml and 1.34 units/ml and 4.65 units/ml and 5.74 units/ml"}, {"measurement": "erosion/ulcer in articular cartilage", "setting": "[2]; [7]", "value": "mild and mild to moderate"}, {"measurement": "granulation tissue (pannus)", "setting": "[2]; [7]", "value": "mild and mild to moderate"}, {"measurement": "increased eroded surface of bone (bone resorption)", "setting": "[2]; [7]", "value": "mild and minimal to moderate"}, {"measurement": "increased periosteal bone (periosteal bone formation)", "setting": "[2]; [7]", "value": "mild and mild to moderate"}, {"measurement": "mixed cell inflammation", "setting": "[2]; [7]", "value": "moderate"}, {"measurement": "pathologic observations after microscopic evaluation, overall", "setting": "[2]; CIA rats, daily P.O. for 21 days", "value": "at a lower level relative to samples from animals in the CIA-induced group"}, {"measurement": "Number of animals: Erosion/Ulcer, cartilaginous, Marked", "setting": "[2]; [8]", "value": 0}, {"measurement": "Number of animals: Erosion/Ulcer, cartilaginous, Mild", "setting": "[2]; [8]", "value": 6}, {"measurement": "Number of animals: Erosion/Ulcer, cartilaginous, Minimal", "setting": "[2]; [8]", "value": 0}, {"measurement": "Number of animals: Erosion/Ulcer, cartilaginous, Moderate", "setting": "[2]; [8]", "value": 2}, {"measurement": "Number of animals: Granulation tissue, Marked", "setting": "[2]; [8]", "value": 0}, {"measurement": "Number of animals: Granulation tissue, Mild", "setting": "[2]; [8]", "value": 4}, {"measurement": "Number of animals: Granulation tissue, Minimal", "setting": "[2]; [8]", "value": 0}, {"measurement": "Number of animals: Granulation tissue, Moderate", "setting": "[2]; [8]", "value": 4}, {"measurement": "Number of animals: Increased bone, periosteum, Marked", "setting": "[2]; [8]", "value": 0}, {"measurement": "Number of animals: Increased bone, periosteum, Mild", "setting": "[2]; [8]", "value": 6}, {"measurement": "Number of animals: Increased bone, periosteum, Minimal", "setting": "[2]; [8]", "value": 0}, {"measurement": "Number of animals: Increased bone, periosteum, Moderate", "setting": "[2]; [8]", "value": 2}, {"measurement": "Number of animals: Increased eroded surface, bone, Marked", "setting": "[2]; [8]", "value": 0}, {"measurement": "Number of animals: Increased eroded surface, bone, Mild", "setting": "[2]; [8]", "value": 4}, {"measurement": "Number of animals: Increased eroded surface, bone, Minimal", "setting": "[2]; [8]", "value": 1}, {"measurement": "Number of animals: Increased eroded surface, bone, Moderate", "setting": "[2]; [8]", "value": 3}, {"measurement": "Number of animals: Mixed cell inflammation, Marked", "setting": "[2]; [8]", "value": 0}, {"measurement": "Number of animals: Mixed cell inflammation, Mild", "setting": "[2]; [8]", "value": 0}, {"measurement": "Number of animals: Mixed cell inflammation, Minimal", "setting": "[2]; [8]", "value": 0}, {"measurement": "Number of animals: Mixed cell inflammation, Moderate", "setting": "[2]; [8]", "value": 8}, {"measurement": "Number of animals: No Visible Lesions", "setting": "[2]; [8]", "value": 0}, {"measurement": "Plasma concentration", "setting": "[3]; per animal", "value": "1590 ng/mL and 4170 ng/mL and 3070 ng/mL and 2740 ng/mL and 1760 ng/mL and 3230 ng/mL and 3450 ng/mL and 2540 ng/mL"}, {"measurement": "concentration at 21 day", "setting": "[3]; Lewis, rat, plasma, oral, read-out: Mean Plasma Concentration", "value": 2820, "unit": "ng/mL"}, {"measurement": "IC50", "setting": "[4]; Test Subject 1, read-out: IL-17A IC50", "value": 0.0805, "unit": "µM"}, {"measurement": "IC50", "setting": "[4]; Test Subject 2, read-out: IL-17A IC50", "value": 0.0597, "unit": "µM"}, {"measurement": "IC50", "setting": "[4]; Test Subject 3, read-out: IL-17A IC50", "value": 0.139, "unit": "µM"}, {"measurement": "IC50", "setting": "[4]; mean of test subjects, read-out: IL-17A IC50 Mean", "value": 0.0932, "unit": "µM"}, {"measurement": "IC50", "setting": "[5]; Test Subject 1, read-out: IL-22 IC50", "value": 0.231, "unit": "µM"}, {"measurement": "IC50", "setting": "[5]; Test Subject 2, read-out: IL-22 IC50", "value": 0.0216, "unit": "µM"}, {"measurement": "IC50", "setting": "[5]; Test Subject 3, read-out: IL-22 IC50", "value": 0.106, "unit": "µM"}, {"measurement": "IC50", "setting": "[5]; mean of test subjects, read-out: IL-22 IC50 Mean", "value": 0.12, "unit": "µM"}, {"measurement": "body weight over the course of the study", "setting": "[6]", "value": "modest weight gains over the first 13 days of the study followed by weight loss"}, {"measurement": "diarrhea over the 21-day period", "setting": "[6]", "value": "did not have diarrhea"}, {"measurement": "increase in body weight, day 21 compared to day 0", "setting": "[6]", "value": 0.8, "unit": "%"}]}
